Source: EP4796125A1, “TREATMENT OF PATIENT WITH NEGATIVE P53 GENE MUTATION, POSITIVE KRAS GENE MUTATION AND POSITIVE BRCA MUTATION” (Ascentawits Pharmaceuticals, Ltd., priority 2023, dated 2025)

Assays:
[1] = test system: HPAF-II cells; experiment: Cell cycle G2/M arrest, PI staining and flow cytometry; assay type: cell-based, human; details: HPAF-II cells with p53 pathogenic mutations; 0.1 nM AST-3424, 5 µM Nutlin-3 (Figure 9)
Protocol: (§1) • 1) H460/HPAF-II cell suspensions were added to a 24-well plate, with a cell density of 100000 cells/well and 995 µL of medium per well. • 2) The cells were cultured overnight in a 37°C, 5% CO2 incubator. • 3) Compound Treatment
(§2) 24 hours after cell plating, according to the protocol, the experimental groups for each cell line were as follows: Monotherapy: 24 hours after cell plating, 5 µL of test compounds at different concentrations was added: 1% DMSO, 5 µM Nutlin-3, and 0.1 nM AST-3424. The plate was gently shaken to ensure even mixing, and then placed in a 37°C, 5% CO2 incubator.
• Cells were pretreated with AST-3424 for 2 hours, and then co-treatment with Nutlin-3 for 24 hours; • cells were pretreated with Nutlin-3 for 2 hours, and then co-treatment with AS -3424 for 24 hours; and • cells were co-treated with AST-3424 and Nutlin-3 for 24 hours. • 4) The cells were digested, centrifuged at 1000 g at 4°C, washed once with pre-cooled PBS, centrifuged at 1000 g at 4°C, and fixed with 1 mL of pre-cooled 70% ethanol at - 20°C overnight. • 5) The cells were centrifuged at 3000 g at 4°C, washed once with pre-cooled PBS (phosphate buffer), and centrifuged at 3000g at 4°C. PI staining solution was prepared. […] The cells were detected using a flow cytometer on the same day, and the proportions of cells in different cell cycle phases was analyzed using FlowJo.

[2] = test system: Ser15-p53, Ser20-p53, Total p53, MDM2, and p21 proteins in H460 cells; experiment: WB detection of p53 protein pathway (Ser15-p53, Ser20-p53, Total p53, MDM2, p21); assay type: cell-based; details: second experiment: 0.1, 0.3, 1 nM AST-3424 ± 5 µM Nutlin-3, 24 hours, AST-3424 dose-dependent (Figure 16)
Protocol: • 1) H460 cell suspension was added to a 24-well plate, with a cell density of 80000 cells/well and 995 µL of medium per well. • 2) The cells were cultured overnight in a 37°C, 5% CO2 incubator. • 3) Compound Treatment
24 hours after cell plating, according to the protocol, the experimental groups for each cell line were as follows: • Monotherapy: 24 hours after cell plating, 5 µL of test compounds at different concentrations was added: 0.5% DMSO, 0.1 nM AST-3424, and 5 µM Nutlin-3. The plate was gently shaken to ensure even mixing, and then placed in a 37°C, 5% CO2 incubator. • Combination therapy: 24 hours after cell plating, 5 µL of test compounds at different concentrations was added. After pre-treatment with 5 µM Nutlin-3 for 2 hours, 0.1 nM AST-3424 was added. The plate was gently shaken to ensure even mixing, and then placed in a 37°C, 5% CO2 incubator.
4) Cell protein lysates were collected for WB detection.
• Adding 0.1 nM AST-3424 for pre-treatment for 2 hours, and then adding 5 µM Nutlin-3 for co-treatment for 22 hours; • Adding 0.3 nM AST-3424 for pre-treatment for 2 hours, and then adding 5 µM Nutlin-3 for co-treatment for 22 hours; • Adding 1 nM AST-3424 for pre-treatment for 2 hours, and then adding 5 µM Nutlin-3 for co-treatment for 22 hours. […]

[3] = test system: H460 cells; experiment: In vitro proliferation inhibition experiment (CTG, 72 hours), Example 20; assay type: cell-based
Protocol: (§3) • 1) H460 and HPAF-II cell suspensions were added to a 96-well plate (100 µL per well), with cell densities of 2000 cells/well and 20000 cells/well, respectively. • 2) The cells were cultured overnight in a 37°C, 5% CO2 incubator. • 3) Compound Treatment
(§4) Combination therapy: 24 hours after cell plating, each well was supplemented with 99 µL of growth medium. Then, 0.5 µL of Nutlin-3 or RITA was added to each well. The plate was gently shaken to ensure even mixing, and then placed in an incubator for 2 hours. Then, 0.5 µL of test compounds at different concentrations was added. The plate was gently shaken to ensure even mixing, and then placed in a 37°C, 5% CO2 incubator.
(§5) Monotherapy: 24 hours after cell plating, each well was supplemented with 99.5 µL of growth medium. Then, 0.5 µL of test compounds at different concentrations was added. The plate was gently shaken to ensure even mixing, and then placed in a 37°C, 5% CO2 incubator. • 4) The cell plate was placed in the incubator for 72 hours. • 5) The cell plate to be tested was placed at room temperature and equilibrated for 30 minutes, and 100 µL of medium was discarded from each well. • 6) 25 µL of CTG reagent was added to each well, placed on a fast shaker to shake for 2 minutes, and placed at room temperature for 30 minutes (protected from light). • 7) The chemiluminescence signal value was read using a multifunctional microplate reader with a reading time of 1000 ms, and the corresponding inhibition rate data were calculated.

[4] = test system: Total P53, MDM2, P21, AKR1C3 proteins in H460 cells; experiment: WB detection ± Nutlin-3 in H460 and H460 P53 KO cells; assay type: cell-based; details: wild-type H460 cells; 5 µM Nutlin-3, 24h; compared with the H460 wild-type DMSO group (Figures 33, 34)
Protocol: • 1) H460 and H460 P53 KO cell suspensions were added to 24-well plates, with a cell density of 100000 cells/well and 995 µL of medium per well. • 2) The cells were cultured overnight in a 37°C, 5% CO2 incubator. • 3) Compound Treatment
24 hours after cell plating, according to the protocol, the experimental groups for each cell line were as follows: H460 WT non-treatment group, H460 P53 KO # 1 non-treatment group, H460 P53 KO # 7 non-treatment group, H460 P53 KO # 8 non-treatment group, H460 P53 KO # 12 non-treatment group, H460 WT 0.1% DMSO treatment group, H460 WT 5 µM Nutlin-3 treatment group, H460 P53 KO # 1 5 µM Nutlin-3 treatment group, H460 P53 KO # 7 5 µM Nutlin-3 treatment group, H460 P53 KO # 8 5 µM Nutlin-3 treatment group, and H460 P53 KO # 12 5 µM Nutlin-3 treatment group.
Monotherapy: 24 hours after cell plating, 5 µL of test compounds at different concentrations was added. […]
• 1) The cell plates were taken out and the medium supernatant was discarded. […] The cells were scraped off with a cell scraper, lysed on ice for 30 min, and centrifuged at 14000 rpm at 4°C for 10 min. • 2) Protein quantification was performed using the BCA assay. […] After the incubation, the membranes were washed three times with TBST (10 min per wash).The ECL luminescence solutions A and B (SuperSignal West Femto Maximum Sensitivity) were mixed and added to the membranes blotting dry. […]

[5] = test system: H460 cells; experiment: Cell cycle G2/M arrest, PI staining and flow cytometry; assay type: cell-based; details: 0.1 nM AST-3424, 5 µM Nutlin-3, 24 hours, combination: AST-3424 added first (Figure 9)
Protocol: as §1, §2
• Cells were pretreated with AST-3424 for 2 hours, and then co-treatment with Nutlin-3 for 24 hours; • cells were pretreated with Nutlin-3 for 2 hours, and then co-treatment with AS -3424 for 24 hours; and • cells were co-treated with AST-3424 and Nutlin-3 for 24 hours. • 4) The cells were digested, centrifuged at 1000 g at 4°C, washed once with pre-cooled PBS, centrifuged at 1000 g at 4°C, and fixed with 1 mL of pre-cooled 70% ethanol at - 20°C overnight. • 5) The cells were centrifuged at 3000 g at 4°C, washed once with pre-cooled PBS (phosphate buffer), and centrifuged at 3000g at 4°C. PI staining solution was prepared. The cells were stained at 37°Cfor 30 minutes (protected from light), and stored in an ice bath (protected from light). The cells were detected using a flow cytometer on the same day, and the proportions of cells in different cell cycle phases was analyzed using FlowJo.
The remaining operations were similar to those of the above experiment, and the compound treatment was as follows: […]

[6] = test system: HPAF-II cells; experiment: In vitro proliferation inhibition experiment (CTG, 72 hours), Example 20; assay type: cell-based, human; details: Table 14, HPAF-II
Protocol: as §3, §4, §5

COc1ccc(C2=N[C@@H](c3ccc(Cl)cc3)[C@@H](c3ccc(Cl)cc3)N2C(=O)N2CCNC(=O)C2)c(OC(C)C)c1 [Nutlin-3]
cell cycle (G0/G1, S, G2/M phases) [1]: has no effect
phosphorylation of p53 (Ser15-p53 and Ser20-p53), protein expression of total-p53, expression of MDM2 and p21 [2]: upregulates
Inhibition rate result / % ([3]; Table 12, H460, group 1: AST 0.5 nM, Nutlin-3 0.25 µM, AST + Nutlin-3 0.5+0.25): 11.8%
Inhibition rate result / % ([3]; Table 12, H460, group 2: AST 0.5 nM, Nutlin-3 0.5 µM, AST + Nutlin-3 0.5+0.5): 17.27%
Inhibition rate result / % ([3]; Table 12, H460, group 3: AST 0.5 nM, Nutlin-3 1 µM, AST + Nutlin-3 0.5+1): 18.3%
Inhibition rate result / % ([3]; Table 12, H460, group 4: AST 1.5 nM, Nutlin-3 0.25 µM, AST + Nutlin-3 1.5+0.25): 11.8%
Inhibition rate result / % ([3]; Table 12, H460, group 5: AST 1.5 nM, Nutlin-3 0.5 µM, AST + Nutlin-3 1.5+0.5): 17.27%
Inhibition rate result / % ([3]; Table 12, H460, group 6: AST 1.5 nM, Nutlin-3 1 µM, AST + Nutlin-3 1.5+1): 18.3%
expressions of MDM2, P53, P21, and AKR1C3 proteins [4]: all upregulated
cell cycle (G0/G1, S, G2/M phases) [5]: does not significantly alter the cell cycle
Inhibition rate result / % ([6]; group 1: AST 20 nM, Nutlin-3 7.5 µM, AST + Nutlin-3 20+7.5): 8.54%
Inhibition rate result / % ([6]; group 2: AST 20 nM, Nutlin-3 10 µM, AST + Nutlin-3 20+10): 52.46%
Inhibition rate result / % ([6]; group 3: AST 20 nM, Nutlin-3 15 µM, AST + Nutlin-3 20+15): 73.93%
Inhibition rate result / % ([6]; group 4: AST 60 nM, Nutlin-3 7.5 µM, AST + Nutlin-3 60+7.5): 8.54%
Inhibition rate result / % ([6]; group 5: AST 60 nM, Nutlin-3 10 µM, AST + Nutlin-3 60+10): 52.46%
Inhibition rate result / % ([6]; group 6: AST 60 nM, Nutlin-3 15 µM, AST + Nutlin-3 60+15): 73.93%
